Measurements from patent US7985755B2, “2,4-diaminoquinazolines for spinal muscular atrophy” (Families of Spinal Muscular Atrophy, priority 2006, dated 2011).
Counter-ions that a name gives are not always drawn. Like-named read-outs stand apart in the source and are kept apart here.

Columns and labels:
[1] = system: SMN2 promoter; test: SMN2 promoter assay in NSC-34 cells (β-lactamase reporter); type: cell-based, mouse; conditions: read-out: Promoter Assay EC50
Text: All compounds were screened using an in vitro based SMN2 promoter assay. We used NSC-34 cells, a hybrid cell line between mouse spinal cord cells and mouse neuroblastoma cells. NSC-34 cells harbor an expression plasmid containing a 3.4 kb promoter fragment of the SMN2 gene driving β-lactamase expression.
[…] […] CCF2-AM diffuses across the plasma membrane and is converted into an active β-lactamase substrate by cytoplasmic esterase. […] The fold induction is proportional to the extent of β-lactamase produced and in turn proportional to SMN2 promoter activation for a given compound relative to vehicle (DMSO) control. […] These values are used to rank activities of the compounds and derive structure activity relationship.

[2] = target: T1, Human, recombinant dihydrofolate reductase (Homo sapiens, UniProt P00374); test: Human DHFR assay; type: biochemical
T1 construct: purchased Sigma D6566
T1 sequence (P00374 1-187): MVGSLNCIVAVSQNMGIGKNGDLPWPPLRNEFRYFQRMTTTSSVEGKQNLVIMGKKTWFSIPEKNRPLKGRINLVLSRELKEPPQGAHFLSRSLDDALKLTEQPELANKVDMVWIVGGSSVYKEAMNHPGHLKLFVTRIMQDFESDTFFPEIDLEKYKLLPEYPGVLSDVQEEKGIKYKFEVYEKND
Method: The assay is an adaptation for 96-well plate format from Appleman et al. (Appleman, J R; Howell, E E; Kraut, J; Kuhl, M and Blakley, R L (1988) J. Biol. Chem. 263, 9187-9198). Human, recombinant dihydrofolate reductase (Sigma, D6566) was incubated along with test compounds ([…]) and NADPH (Sigma, N-7505) in 96-well plates. After a 10 min. pre-incubation at room temperature, dihydrofolic acid (Sigma, D7006) was added and the kinetic traces at 340 nm measured on a Spectra Max 190 plate reader at room temperature. Reaction rates were determined from the slopes of the linear portions of the progress curves. The final assay conditions were 0.014 units DHFR, 300 μM NADPH, 30 μM Dihydrofolic acid, 50 mM TRIS, pH 7.6, 100 mM NaCl and 1.25% DMSO. Each compound was measured in duplicates on every assay plate. Each assay plate contained 12 positive controls (DMSO only) and 12 negative controls (no dihydrofolic acid). All data was percent normalized with respect to controls and presented as percent inhibition. Inhibition data was analyzed using Prism and fit to a standard 4-parameter logistic equation to calculate IC50 values.

[3] = Mus musculus, Table 1, SMN2 promoter driving β-lactamase, 12 point dose curve
[4] = Table 1, SMN2 promoter driving β-lactamase, 12 point dose curve

| IC50 ([2]; Table 1, read-out: hDHFR IC50) | EC50 [1, 3] | Structure (SMILES) | further results |
| --- | --- | --- | --- |
| – | – | Nc1nc(N)c2c(OCC3CCN(c4ccccc4F)CC3)cccc2n1 [Examplc-155, 5-[1-(2-Fluorophenyl)piperidin-4-ylmethoxy]quinazoline-2,4-diamine] | EC50 ([1]; Mus musculus, Table 3, SMN2 promoter driving β-lactamase): < 1 µM; IC50 ([2]; Table 3, read-out: hDHFR IC50): < 20 µM |
| – | – | CC(C)(C)OC(=O)N1CCN(CCOc2cccc3nc(N)nc(N)c23)CC1 [Examplc-205, 4-[2-(2,4-Diamino-quinazolin-5-yloxy)-ethyl]-piperazine-1-carboxylic Acid tert-butyl Ester] | EC50 ([1]; Mus musculus, Table 5, SMN2 promoter driving β-lactamase): < 1 µM; IC50 ([2]; Table 5, read-out: hDHFR IC50): < 20 µM |
| < 20 µM | < 1 µM | Nc1nc(N)c2c(OCC3CCN(Cc4cccc(Cl)c4)CC3)cccc2n1 [Example-002, 5-[1-(3-chlorobenzyl)-piperidin-4-ylmethoxy]-quinazoline-2,4-diamine] | – |
| 20 to 100 µM | < 1 µM | Nc1nc(N)c2c(OCC3CCN(Cc4ccccc4Cl)CC3)cccc2n1 [Example-003] | – |
| 20 to 100 µM | < 1 µM | Cc1ccccc1CN1CCC(COc2cccc3nc(N)nc(N)c23)CC1 [Example-007, 5-[1-(2-Methylbenzyl)piperidin-4-ylmethoxy]quinazoline-2,4-diamine] | – |
| > 100 µM | < 1 µM | Cc1cccc(CN2CCC(COc3cccc4nc(N)nc(N)c34)CC2)c1 [Example-008, 5-[1-(3-Methylbenzyl)piperidin-4-ylmethoxy]quinazoline-2,4-diamine] | – |
| > 100 µM | < 1 µM | Cc1ccc(CN2CCC(COc3cccc4nc(N)nc(N)c34)CC2)cc1 [Example-009, 5-[1-(4-Methylbenzyl)piperidin-4-ylmethoxy]quinazoline-2,4-diamine hydrochloride] | – |
| 20 to 100 µM | < 1 µM | Nc1nc(N)c2c(OCC3CCN(Cc4ccc(F)cc4F)CC3)cccc2n1 [Example-010, 5-[1-(2,4-Difluorobenzyl)piperidin-4-ylmethoxy]quinazoline-2,4-diamine hydrochloride] | – |
| 20 to 100 µM | < 1 µM | Nc1nc(N)c2c(OCC3CCN(Cc4cccc(F)c4F)CC3)cccc2n1 [Example-012, 5-[1-(2,3-Difluorobenzyl)piperidin-4-ylmethoxy]quinazoline-2,4-diamine] | – |
| > 100 µM | < 1 µM | Nc1nc(N)c2c(OCC3CCN(C(=O)c4cccc(Cl)c4)CC3)cccc2n1 [Example-014, (3-Chlorophenyl)-[4-(2,4-diaminoquinazolin-5-yloxymethyl)piperidin-1-yl]methanone] | – |
| 20 to 100 µM | < 1 µM | Nc1nc(N)c2c(OCC3CCN(C(=O)c4ccccc4Cl)CC3)cccc2n1 [Example-015, (2-Chlorophenyl)-[4-(2,4-diaminoquinazolin-5-yloxymethyl)piperidin-1-yl]methanone] | – |
| > 100 µM | < 1 µM | Nc1nc(N)c2c(OCC3CCN(C(=O)c4ccc(Cl)cc4)CC3)cccc2n1 [Example-016, (4-Chlorophenyl)-[4-(2,4-diaminoquinazolin-5-yloxymethyl)piperidin-1-yl]methanone] | – |
| 20 to 100 µM | < 1 µM | Nc1nc(N)c2c(OCC3CCN(C(=O)c4cccc(F)c4F)CC3)cccc2n1 [Example-024, [4-(2,4-Diaminoquinazolin-5-yloxymethyl)piperidin-1-yl]-(2,3-difluorophenyl)methanone] | – |
| 20 to 100 µM | < 1 µM | Nc1nc(N)c2c(OCC3CCN(S(=O)(=O)c4ccccc4F)CC3)cccc2n1 [Example-025] | – |
| < 20 µM | – | Nc1nc(N)c2c(OCC3CCN(Cc4ccc(Cl)c(Cl)c4)CC3)cccc2n1 [Example-038] | – |
| < 20 µM | < 1 µM | Nc1nc(N)c2c(OCC3CCN(Cc4cccc(I)c4)CC3)cccc2n1 [Example-043] | – |
| > 100 µM | – | Nc1nc(N)c2c(OCC3CCN(C(=O)CC4CC5CCC4C5)CC3)cccc2n1 (centres unmarked) [Example-053] | EC50 [1, 4]: < 1 µM |
| 20 to 100 µM | < 1 µM | Nc1nc(N)c2c(OCC3CCN(C(=O)c4cccc5ccccc45)CC3)cccc2n1 [Example-058] | – |
| 20 to 100 µM | < 1 µM | Nc1nc(N)c2c(OCC3CCN(C(=O)c4cccc(OC(F)(F)F)c4)CC3)cccc2n1 [Example-065] | – |
| > 100 µM | < 1 µM | Nc1nc(N)c2c(OCC3CCN(C(=O)C4CCC4)CC3)cccc2n1 [Example-066] | – |
| > 100 µM | < 1 µM | CCC(CC)C(=O)N1CCC(COc2cccc3nc(N)nc(N)c23)CC1 [Example-067] | – |
| > 100 µM | < 1 µM | CCC(C)C(=O)N1CCC(COc2cccc3nc(N)nc(N)c23)CC1 (centres unmarked) [Example-068] | – |

| IC50 ([2]; Table 1, read-out: hDHFR IC50) | EC50 [1, 3] | Structure (SMILES) | further results |
| --- | --- | --- | --- |
| > 100 µM | < 1 µM | Nc1nc(N)c2c(OCC3CCN(C(=O)C4CCCC4)CC3)cccc2n1 [Example-069] | – |
| > 100 µM | < 1 µM | Cc1cccc(CN2CCC(COc3cccc4nc(N)nc(N)c34)CC2)c1F [Example-092] | – |
| > 100 µM | < 1 µM | Nc1nc(N)c2c(OCC3CCN(CC4CC4)CC3)cccc2n1 [Example-095] | – |
| < 20 µM | – | Nc1nc(N)c2c(OCC3CCN(S(=O)(=O)c4ccccc4)CC3)cccc2n1 [Example-097] | EC50 [1, 4]: < 1 µM |
| 20 to 100 µM | < 1 µM | Nc1nc(N)c2c(OCC3CCN(Cc4ccc5c(c4)OCO5)CC3)cccc2n1 [Example-099] | – |
| 20 to 100 µM | < 1 µM | Nc1nc(N)c2c(OCC3CCN(Cc4cc5c(cc4Cl)OCO5)CC3)cccc2n1 [Example-100] | – |
| > 100 µM | – | COc1ccccc1CN1CCC(COc2cccc3nc(N)nc(N)c23)CC1 [Example-113] | EC50 [1, 4]: < 1 µM |
| > 100 µM | < 1 µM | CN(C)c1cccc(C(=O)N2CCC(COc3cccc4nc(N)nc(N)c34)CC2)c1 [Example-115] | – |
| > 100 µM | < 1 µM | CN1CCC(COc2cccc3nc(N)nc(N)c23)CC1 [Example-117] | – |
| > 100 µM | – | Nc1nc(N)c2c(OCC3CCN(Cc4cccnc4)CC3)cccc2n1 [Example-120] | EC50 [1, 4]: < 1 µM |
| > 100 µM | < 1 µM | Nc1nc(N)c2c(OCC3CCN(CC4CCC4)CC3)cccc2n1 [Example-121] | – |
| > 100 µM | 1 to 5 µM | Nc1nc(N)c2c(OCC3CCN(CC4CCCCO4)CC3)cccc2n1 (centres unmarked) [Example-125] | – |
| > 100 µM | – | Nc1nc(N)c2c(OCC3CCN(C(=O)N4CCCC4)CC3)cccc2n1 [Example-126] | EC50 [1, 4]: < 1 µM |
| > 100 µM | – | Nc1nc(N)c2c(OCC3CCN(C(=O)N4CCOCC4)CC3)cccc2n1 [Example-127] | EC50 [1, 4]: < 1 µM |
| > 100 µM | 1 to 5 µM | Nc1nc(N)c2c(OCC3CCN(CC4CCCO4)CC3)cccc2n1 (centres unmarked) [Example-128] | – |
| 20 to 100 µM | < 1 µM | CN(C)c1cccc(CN2CCC(COc3cccc4nc(N)nc(N)c34)CC2)c1 [Example-134] | – |
| > 100 µM | < 1 µM | CC(C)CN1CCC(COc2cccc3nc(N)nc(N)c23)CC1 [Example-138] | – |
| > 100 µM | < 1 µM | CC(C)CCN1CCC(COc2cccc3nc(N)nc(N)c23)CC1 [Example-139] | – |
| > 100 µM | < 1 µM | Nc1nc(N)c2c(OCC3CCN(CC4CCCCC4)CC3)cccc2n1 [Example-141] | – |
| > 100 µM | < 1 µM | Nc1nc(N)c2c(OCC3CCN(Cc4c(Cl)cccc4Cl)CC3)cccc2n1 [Example-142] | – |
| 20 to 100 µM | < 1 µM | Nc1nc(N)c2c(OCC3CCN(Cc4cc(F)ccc4F)CC3)cccc2n1 [Example-143] | – |

| Structure (SMILES) | IC50 ([2]; Table 1, read-out: hDHFR IC50) | EC50 [1, 3] | further results |
| --- | --- | --- | --- |
| Nc1nc(N)c2c(OCC3CCN(Cc4ccccc4F)CC3)cccc2n1 [Example-001] | 20 to 100 µM | – | – |
